Experiments:
[1] = Crystal; Adiabatic calorimetry
[2] = Molar enthalpy of transition or fusion; details: Crystal; Adiabatic calorimetry
[3] = molar heat capacity at constant pressure; details: 101.33 kPa, Small (less than 1 g) adiabatic calorimetry

c1ccc(Oc2ccccc2)cc1 [diphenyl ether]
Details | Molar enthalpy of transition or fusion [kcal/mol] | Triple point temperature [K]
[1] | – | 299.96
[2] | 4.092 | –

[3]
Details | molar heat capacity at constant pressure [J/K/mol]
282.08 K, Crystal | 202.2
283.34 K, Crystal | 202.92
285.84 K, Crystal | 203.66
287.09 K, Crystal | 205.43
288.33 K, Crystal | 206.1
289.59 K, Crystal | 207.25
290.84 K, Crystal | 208.01
292.1 K, Crystal | 209.17
321.46 K, Liquid | 276.46
323.17 K, Liquid | 278.21
324.89 K, Liquid | 278.93
326.63 K, Liquid | 279.41
328.37 K, Liquid | 279.66
330.1 K, Liquid | 280.76
331.85 K, Liquid | 281.87
333.61 K, Liquid | 282.69
335.38 K, Liquid | 283.24

From the NIST ThermoML archive (doi:10.1016/j.jct.2018.04.009)
